{"source": "patent US9066959B2", "about": "“Ficus extracts having angiogenesis inhibiting activity and methods of isolating and using the same” (BOARD OF SUPERVISORS OF LOUISIANA STATE UNIVERSITY AND …, priority 2008, dated 2015)", "key": {"[1]": {"tested_on": "fragments from a neuroendocrine lymph node metastasis", "test": "tumor fragment fibrin clot angiogenesis assay, neuroendocrine lymph node metastasis", "assay_type": "cell-based, human", "conditions": "1 mM, day 14, control compound", "procedure": "(§1) Fibrin clots were prepared in 96-well plates (Corning Inc., Corning, N.Y.). Each well was preloaded with a human thrombin solution (0.05 IU/mL; in 2.0 μL/well), (Sigma Chemical Company, St Louis, Mo.). A pre-coagulation solution was prepared by dissolving fibrinogen (0.3%; Sigma) and ∈-aminocaproic acid (0.5%; Sigma) in serum-free growth medium consisting of medium 199 (Mediatech, Herndon Va.) supplemented with an antibiotic-antifungal solution (Gibco/Invitrogen, Grand Island, N.Y.; 100 Units/mL of sodium penicillin G, 100 μg/mL of streptomycin sulfate, and 25 μg of amphotericin B) and buffered to a pH of 7.6. Tumor specimens were placed in chilled serum-containing growth media (medium 199 with 20% fetal bovine serum [FBS], Gibco/Invitrogen) and kept under refrigeration until they were processed. The specimens were processed within 24 hours of surgical harvesting. Minced tumor fragments approximately 2 mm in diameter and 1 mm thick were prepared and rapidly embedded within the fibrin clots. Each tumor fragment was placed in the center of a thrombin-treated well. […] Percent initiation (% I) is a ratio calculated from the number of wells that developed an angiogenic response divided by the total number of wells prepared (×100). […] On day 14, fragments were examined microscopically and scored for an angiogenic response (angiogenic index=0-16). […]"}, "fragments from a sarcoma": {"tested_on": "fragments from a sarcoma", "test": "tumor fragment fibrin clot angiogenesis assay, sarcoma", "assay_type": "cell-based, human", "conditions": "1 mM, day 14, control compound", "procedure": "as §1"}}, "data": [{"compound": "O=C(O)c1cc(O)c(O)c(O)c1", "note": "[Gallic Acid]", "values": [{"measurement": "angiogenic response (angiogenic index 0-16)", "setting": "[1]", "value": "total inhibition"}, {"measurement": "angiogenic response (angiogenic index 0-16)", "setting": "fragments from a sarcoma", "value": "total inhibition"}]}]}
